The text below walks through data of the supplement of paper PMC10307832.

Common to all, as to assay: relative viability (nuclei count vs DMSO), 5 days (fraction); higher = more cells survive
Compound in test [1]: COc1cc2c(Oc3ccc4[nH]c(C)cc4c3F)ncnc2cc1OCCCN1CCCC1 [Cediranib] + CC(=O)Nc1cccc(-n2c(=O)n(C3CC3)c(=O)c3c(Nc4ccc(I)cc4F)n(C)c(=O)c(C)c32)c1 [Trametinib] (partner 0.02 µM)
A digest of the protocol: (§1)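 Values are medians from duplicate plates. Each reflects relative viability, defined as the nuclei count of treated wells over that of vehicle wells. Lung cancer cell lines in 1536-well plates were pin-tool dosed one day after seeding with one drug alone or with a fixed anchor-drug dose plus five library-drug doses (not always all listed) in √10 steps, then fixed, stained and imaged at 4× after 5 days.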

Compound in test [2]: COc1cc2c(Oc3ccc4[nH]c(C)cc4c3F)ncnc2cc1OCCCN1CCCC1 [Cediranib] + COc1cc2c(Oc3ccc(NC(=O)C4(C(=O)Nc5ccc(F)cc5)CC4)cc3F)ccnc2cc1OCCCN1CCOCC1 [Foretinib] (partner 0.25 µM)
In a few lines:
as §1

Compound in test [3]: COc1cc2c(Oc3ccc4[nH]c(C)cc4c3F)ncnc2cc1OCCCN1CCCC1 [Cediranib] + Nc1ncn([C@H]2C[C@H](O)[C@@H](CO)O2)c(=O)n1 [Decitabine] (partner 2 µM)
In a few lines: as §1

Compound in test [4]: Nc1ncn([C@H]2C[C@H](O)[C@@H](CO)O2)c(=O)n1 [Decitabine] + C[C@]1(O)C[C@@H](c2nc(-c3ccc4ccc(-c5ccccc5)nc4c3)c3c(N)nccn32)C1 [Linsitinib] (partner 1 µM)
A digest of the protocol: as §1

Consider UMC-11, for which the relative viability worked out at 0.684 in test [1] (first compound 0.04 µM); 0.234 in test [1] (first compound 0.1265 µM); 0.586 in test [1] (first compound 0.4 µM); 0.394 in test [1] (first compound 1.265 µM); 0.721 in test [1] (first compound 4 µM); 1.1 in test [2] (first compound 0.04 µM). The relative viability in test [2] (first compound 0.4 µM) is 1.03; in test [2] (first compound 4 µM), 1.05; in test [3] (first compound 0.04 µM), 0.617; in test [3] (first compound 0.1265 µM), 0.528; in test [3] (first compound 0.4 µM), 0.557; in test [3] (first compound 1.265 µM) it was 0.555. For the same cell line, the relative viability in test [3] (first compound 4 µM) was found to be 0.633; in test [4] (first compound 0.04 µM), 0.976; in test [4] (first compound 0.1265 µM) it was 0.802; in test [4] (first compound 0.4 µM), 0.448; in test [4] (first compound 1.265 µM), 0.38; in test [4] (first compound 4 µM) it was 0.335.
